Experimental data reported in patent EP2875809B1, “Product based on an association of glucomannan and inositol” (Dicofarm Spa, priority 2013, dated 2015).

What was measured:
[1] = OGTT (oral glucose tolerance test): insulin levels; type: in vivo; parameters: unit not given beside the values; conditions: OGTT 75 g, women with PCOS, treatment twice a day for 3 months
Experimental: (§1) In order to evaluate the effectiveness of this new combination of inositol and glucomannan on blood glucose levels and insulin at baseline and after glucose load curve, it was evaluated the effect in 20 women affected by insulin resistance PCOS and compared with what determined in 2 groups of 10 women each, treated with myo-inositol and glucomannan individually administered.
(§2) The women were divided into 3 groups, each group received the treatment according to the following scheme: • Group A: 20 women treated with 1.5 g of myo-inositol + 2 g of glucomannan, twicea day for 3 months, administered half an hour before meals; • Group B: 10 women treated with 1.5 g myo-inositol, twice a day for 3 months, administered half an hour before meals; • Group C: 10 women treated with a dose of 2 g of glucomannan, twice a day for 3 months, adminisered with main meals.
(§3) In order to determine blood glucose and insulin levels in all samples, OGTT (oral glucose tolerance test) was performed in all women in the early follicular phase of the spontaneous period, or after a progestin-induced, period before starting the treatment and after three months of treatment ([…]) .

[2] = OGTT (oral glucose tolerance test): blood glucose levels; type: in vivo; conditions: OGTT 75 g, women with PCOS, treatment twice a day for 3 months
Experimental: as §1, §2, §3

[3] = Menstrual cycle trend (frequency of the period); type: in vivo; conditions: before the treatment, same group of women with PCOS
From the text: as §2
(§4) In addition to the assessment of blood glucose and insulin levels during OGTT, the menstrual cycle trend has been evaluated in all the women: the 3rd month of treatment at the 22nd day of the menstrual cycle a progesterone dosage was performed and, after 3 months of treatment, an evaluation of acne, hirsutism and body mass index was performed.

[4] = Plasma progesterone at the 22nd day of the period; type: in vivo, women
From the text: as §2, §4

[5] = Body mass index evaluation; type: in vivo, women
From the text: as §2, §4

[6] = before treatment, same group of women with PCOS

With `O[C@H]1[C@H](O)[C@@H](O)[C@H](O)[C@@H](O)[C@H]1O` [myo-inositol] the insulin levels ([1]; time 0) was 7.6+1, the insulin levels ([1]; time 60') was 57.5±7.13 and the insulin levels ([1]; time 90') was 48.4±4.81. For the same compound, the insulin levels ([1]; time 120') was 40.7±5.57, the insulin levels ([1]; time 180') was 34±4.89 and the blood glucose levels ([2]; time 0) was 90±4.71. The blood glucose levels ([2]; time 30') was 130.8±6.56, the blood glucose levels ([2]; time 90') was 107.2±10.25 and the blood glucose levels ([2]; time 120') was 98±6.92. For the same compound, the blood glucose levels ([2]; time 180') was 91.1±6.15, the “frequency of the period” value [3] was 38 to 42 days and the plasma progesterone ([4]; 22nd day of the period during the 3rd month of treatment) was 4.2 ± 0.6 ng/mL. For the same compound, the plasma progesterone [4, 6] was 2.2 ± 0.2 ng/mL, the body mass index ([5]; at the 3rd month of treatment) was 25 ± 1.3 and the body mass index [5, 6] was 27 ± 0.6.
